According to patent US20250361233A1, “Compounds For Activating Serotonin Receptor” (PSYLO PTY LTD, priority 2023, published 2025):

Key:
Assay type in all cases: cell-based
[1] = molecular target: T1, 5-HT2A receptor (Homo sapiens, UniProt P28223); test: FLIPR Ca2+ flux functional assay, agonist activity at 5-HT2A; details: stably transfected HEK293 cells
T1 construct: host or cells: HEK293
Procedure: (§1) Functional assays 5-HT2A, 5-HT2B and 5-HT2C Receptors
(§2) Activity at 5-HT2A, 5-HT2B and 5-HT2C receptors was determined using a FLIPR Ca2+ flux assay at WuXi AppTec Co. Ltd. (Hong Kong) Discovery Biology Unit according to their standard protocols. Briefly, stably transfected cells expressing the receptor of interest (HEK293 for 5-HT2A and 5-HT2C; CHO-K1 for 5-HT2B) were grown and plated in a 384 well plate and incubated at 37° C. and 5% CO2 overnight. A 250 mM stock solution of probenecid in FLIPR calcium assay buffer (10 mL) was freshly prepared and combined with a fluorescent dye (Fluo-4 Direct) to give a final assay concentration of 2.5 mM. Reference compounds were 4-fold serially diluted and the screening compounds were 3-fold serially diluted in 100% DMSO for 10 points using Agilent Bravo, and 750 nL was added to a 384 well compound plate using Echo along with 30 μL assay buffer. The fluorescent dye was then added to the assay plate along with assay buffer to a final volume of 40 μL. The cell plate was incubated for 50 min at 37° C. and 5% CO2 and placed into the FLIPR Tetra along with the compound plate. 10 μL of references and compounds were then transferred from the compound plate into the cell plate and the fluorescent signal was read.

[2] = molecular target: T2, 5-HT2C receptor (Homo sapiens, UniProt P28335); test: FLIPR Ca2+ flux functional assay, agonist activity at 5-HT2C; details: stably transfected HEK293 cells
T2 construct: host or cells: HEK293
T2 sequence (P28335 33-458): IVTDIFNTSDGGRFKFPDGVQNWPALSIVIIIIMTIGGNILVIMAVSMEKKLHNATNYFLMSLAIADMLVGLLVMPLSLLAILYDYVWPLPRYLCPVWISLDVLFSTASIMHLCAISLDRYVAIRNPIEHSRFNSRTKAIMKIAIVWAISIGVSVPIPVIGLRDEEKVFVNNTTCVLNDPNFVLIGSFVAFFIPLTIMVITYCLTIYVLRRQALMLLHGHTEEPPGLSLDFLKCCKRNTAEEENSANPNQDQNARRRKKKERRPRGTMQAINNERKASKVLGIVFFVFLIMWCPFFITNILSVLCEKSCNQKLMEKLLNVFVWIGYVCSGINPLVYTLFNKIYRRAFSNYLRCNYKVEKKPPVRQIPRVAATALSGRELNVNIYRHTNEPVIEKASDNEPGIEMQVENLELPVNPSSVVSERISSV
Procedure: as §1, §2

[3] = molecular target: T3, 5-HT2B receptor (Homo sapiens, UniProt P41595); test: 5-HT2B activation in a similar assay at a single 10 μM concentration
T3 construct: host or cells: CHO-K1
T3 sequence (P41595 whole entry): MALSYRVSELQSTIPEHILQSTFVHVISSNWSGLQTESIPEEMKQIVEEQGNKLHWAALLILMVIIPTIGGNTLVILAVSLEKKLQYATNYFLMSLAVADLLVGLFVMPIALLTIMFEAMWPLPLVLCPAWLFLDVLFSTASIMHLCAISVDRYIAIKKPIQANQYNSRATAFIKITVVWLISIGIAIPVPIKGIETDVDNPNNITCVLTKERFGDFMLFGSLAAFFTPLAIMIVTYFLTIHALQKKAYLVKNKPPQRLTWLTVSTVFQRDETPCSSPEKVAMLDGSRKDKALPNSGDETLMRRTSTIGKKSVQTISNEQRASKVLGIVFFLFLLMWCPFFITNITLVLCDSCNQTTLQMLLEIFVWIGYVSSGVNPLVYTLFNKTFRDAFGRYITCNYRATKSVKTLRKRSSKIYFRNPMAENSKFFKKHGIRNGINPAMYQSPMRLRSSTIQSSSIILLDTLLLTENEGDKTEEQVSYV
Procedure: Activation data are provided in a similar assay tested at a single 10 μM concentration.

T1 sequence (P28223 whole entry): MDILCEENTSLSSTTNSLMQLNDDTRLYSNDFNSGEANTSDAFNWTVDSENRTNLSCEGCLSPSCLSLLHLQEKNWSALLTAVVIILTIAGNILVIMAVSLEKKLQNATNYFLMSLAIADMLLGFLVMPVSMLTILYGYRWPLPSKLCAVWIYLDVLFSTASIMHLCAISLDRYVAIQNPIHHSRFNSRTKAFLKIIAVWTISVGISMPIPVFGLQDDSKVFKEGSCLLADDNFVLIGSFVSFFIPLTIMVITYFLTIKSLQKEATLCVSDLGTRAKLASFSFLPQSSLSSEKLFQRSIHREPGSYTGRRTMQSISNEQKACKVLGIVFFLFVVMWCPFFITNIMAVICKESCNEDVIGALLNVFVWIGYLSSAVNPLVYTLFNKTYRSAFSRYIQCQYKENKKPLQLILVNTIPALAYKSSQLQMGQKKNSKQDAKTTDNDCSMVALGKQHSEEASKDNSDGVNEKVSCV

Row | Structure (SMILES) | EC50 [1] | Emax [1] | EC50 [2] | Emax [2] | 5-HT2B % Activation @ 10 μM [3]
1 | C[C@H]1CCCN1CCc1c[nH]c2ncc(F)cc12 [Compound S51, (S)-5-fluoro-3-(2-(2-methylpyrrolidin-1-yl)ethyl)-1H-pyrrolo[2,3-b]pyridine] | 394 nM | 86% | > 10000 nM | 2% | 0%
2 | CCN(C)CCc1c[nH]c2ncc(Cl)cc12 [Compound S52, 2-(5-chloro-1H-pyrrolo[2,3-b]pyridin-3-yl)-N-ethyl-N-methylethan-1-amine] | 149 nM | 61% | 1950 nM | 49% | 3%
3 | CC(C)N(C)CCc1c[nH]c2ncc(Cl)cc12 [Compound S53, N-(2-(5-chloro-1H-pyrrolo[2,3-b]pyridin-3-yl)ethyl)-N-methylpropan-2-amine] | 115 nM | 84% | 2580 nM | 71% | 26%
4 | CCN(C)CCc1c[nH]c2ncc(Br)cc12 [Compound S54, 2-(5-bromo-1H-pyrrolo[2,3-b]pyridin-3-yl)-N-ethyl-N-methylethan-1-amine] | 223 nM | 69% | > 10000 nM | 19% | 1%
5 | CC(C)N(C)CCc1c[nH]c2ncc(Br)cc12 [Compound S55, N-(2-(5-bromo-1H-pyrrolo[2,3-b]pyridin-3-yl)ethyl)-N-methylpropan-2-amine] | 158 nM | 73% | 3590 nM | 34% | 4%
6 | CN(CCc1c[nH]c2ncc(Br)cc12)C1CC1 [Compound S56, N-(2-(5-bromo-1H-pyrrolo[2,3-b]pyridin-3-yl)ethyl)-N-methylcyclopropanamine] | 226 nM | 54% | 1850 nM | 45% | 2%
7 | Brc1cnc2[nH]cc(CCN3CCCC3)c2c1 [Compound S57, 5-bromo-3-(2-(pyrrolidin-1-yl)ethyl)-1H-pyrrolo[2,3-b]pyridine] | 897 nM | 86% | 3480 nM | 62% | 12%
8 | Brc1cnc2[nH]cc(CCN3CCC3)c2c1 [Compound S58, 3-(2-(azetidin-1-yl)ethyl)-5-bromo-1H-pyrrolo[2,3-b]pyridine] | 124 nM | 79% | 231 nM | 67% | 3%
9 | CC1CCN1CCc1c[nH]c2ncc(Br)cc12 (centres unmarked) [Compound S59, 5-bromo-3-(2-(2-methylazetidin-1-yl)ethyl)-1H-pyrrolo[2,3-b]pyridine] | 410 nM | 69% | > 10000 nM | 19% | 0%
10 | Fc1ccccc1CNCCc1c[nH]c2ncc(Br)cc12 [Compound S60, 2-(5-bromo-1H-pyrrolo[2,3-b]pyridin-3-yl)-N-(2-fluorobenzyl)ethan-1-amine] | 285 nM | 66% | 1790 nM | 63% | 0%
11 | Fc1cccc(CNCCc2c[nH]c3ncc(Br)cc23)c1 [Compound S61, 2-(5-bromo-1H-pyrrolo[2,3-b]pyridin-3-yl)-N-(3-fluorobenzyl)ethan-1-amine] | 74.7 nM | 65% | 1920 nM | 73% | 0%
12 | COc1ccccc1CNCCc1c[nH]c2ncc(Br)cc12 [Compound S62, 2-(5-bromo-1H-pyrrolo[2,3-b]pyridin-3-yl)-N-(2-methoxybenzyl)ethan-1-amine] | 7.86 nM | 78% | 480 nM | 85% | 1%
13 | COc1cccc(CNCCc2c[nH]c3ncc(Br)cc23)c1 [Compound S63, 2-(5-bromo-1H-pyrrolo[2,3-b]pyridin-3-yl)-N-(3-methoxybenzyl)ethan-1-amine] | 104 nM | 63% | 2970 nM | 48% | 0%
14 | CCN(C)CCc1c[nH]c2ncc(OC(F)(F)F)cc12 [Compound S64, N-ethyl-N-methyl-2-(5-(trifluoromethoxy)-1H-pyrrolo[2,3-b]pyridin-3-yl)ethan-1-amine] | 1670 nM | 47% | > 10000 nM | 0% | 1%
15 | CC(C)N(C)CCc1c[nH]c2ncc(OC(F)(F)F)cc12 [Compound S65, N-methyl-N-(2-(5-(trifluoromethoxy)-1H-pyrrolo[2,3-b]pyridin-3-yl)ethyl)propan-2-amine] | 665 nM | 73% | > 10000 nM | 0% | 1%
16 | CCN(C)CCc1c[nH]c2ncc(C#N)cc12 [Compound S66, 3-(2-(ethyl(methyl)amino)ethyl)-1H-pyrrolo[2,3-b]pyridine-5-carbonitrile] | 1170 nM | 65% | > 10000 nM | 1% | 0%
17 | CC(C)N(C)CCc1c[nH]c2ncc(C#N)cc12 [Compound S67, 3-(2-(isopropyl(methyl)amino)ethyl)-1H-pyrrolo[2,3-b]pyridine-5-carbonitrile] | 609 nM | 80% | > 10000 nM | 2% | 4%
18 | CN(CCc1c[nH]c2ncc(C#N)cc12)C1CC1 [Compound S68, 3-(2-(cyclopropyl(methyl)amino)ethyl)-1H-pyrrolo[2,3-b]pyridine-5-carbonitrile] | 566 nM | 70% | 4570 nM | 44% | 11%
19 | N#Cc1cnc2[nH]cc(CCN3CCCC3)c2c1 [Compound S69, 3-(2-(pyrrolidin-1-yl)ethyl)-1H-pyrrolo[2,3-b]pyridine-5-carbonitrile] | 1470 nM | 86% | > 10000 nM | 0% | 0%
20 | N#Cc1cnc2[nH]cc(CCN3CCC3)c2c1 [Compound S70, 3-(2-(azetidin-1-yl)ethyl)-1H-pyrrolo[2,3-b]pyridine-5-carbonitrile] | 681 nM | 78% | > 10000 nM | 16% | 0%
21 | CC1CCN1CCc1c[nH]c2ncc(C#N)cc12 (centres unmarked) [Compound S71, 3-(2-(2-methylazetidin-1-yl)ethyl)-1H-pyrrolo[2,3-b]pyridine-5-carbonitrile] | 1140 nM | 81% | > 10000 nM | 9% | 0%
22 | N#Cc1cnc2[nH]cc(CCNCc3ccccc3F)c2c1 [Compound S72, 3-(2-((2-fluorobenzyl)amino)ethyl)-1H-pyrrolo[2,3-b]pyridine-5-carbonitrile] | 179 nM | 70% | 5070 nM | 47% | 0%
23 | N#Cc1cnc2[nH]cc(CCNCc3cccc(F)c3)c2c1 [Compound S73, 3-(2-((3-fluorobenzyl)amino)ethyl)-1H-pyrrolo[2,3-b]pyridine-5-carbonitrile] | 134 nM | 66% | 7430 nM | 43% | 2%
24 | COc1ccccc1CNCCc1c[nH]c2ncc(C#N)cc12 [Compound S74, 3-(2-((2-methoxybenzyl)amino)ethyl)-1H-pyrrolo[2,3-b]pyridine-5-carbonitrile] | 7.7 nM | 93% | 1880 nM | 88% | 15%
25 | COc1cccc(CNCCc2c[nH]c3ncc(C#N)cc23)c1 [Compound S75, 3-(2-((3-methoxybenzyl)amino)ethyl)-1H-pyrrolo[2,3-b]pyridine-5-carbonitrile] | 44.4 nM | 79% | 3620 nM | 46% | 1%
